The target in one test is V599E Raf (Homo sapiens, UniProt P15056, V600E). Kind of test: Biochemical FRET assay, mutant Raf (phosphorylation of MEK). Particulars: 0.125 nM V599E Raf, 100 nM biotin-MEK, 25 μM ATP, read-out: Raf (mut) inhibition. On the procedure:
(1) Biochemical FRET Assay […]
Inhibitors were diluted 4-fold in 100% DMSO and added to a final concentration of 10 μM to 40 μM to a solution containing 100 nM biotin-MEK, 0.125 nM V599E Raf in 50 mM HEPES, pH 7.4, 60 mM NaCl, 3 mM MgCl2, 2 mM DTT, 0.25 mM MnCl2, 0.01% BSA, and 0.01% Tween-20 and incubated for 20 minutes at room temperature. The kinase reaction was started by the addition of 25 μM ATP to a final volume of 45 μl and allowed to progress for 60 minutes. The reaction was stopped with 15 mM EDTA and 20 nM Streptavidin-APC, 2.5 nM Polyclonal anti p-MEK1/2 (Ser217/221), 2.5 nM Eu-labeled anti-rabbit IgG were added in Lance detection buffer and 5% Superblock in PBS for a final volume of 100 μl. The detection reaction was incubated for 90 minutes at room temperature and then read on an Analyst plate reader using standard TR-FRET (time resolved fluorescence resonance energy transfer) settings for Eu and APC.
Compounds having an activity designated as “A” provided an IC50≦100 nM; compounds having an activity designated as “B” provided an IC50 of 100-1000 nM; and compounds having an activity designated as “C” provided an IC50 of 1000-10,000 nM.

Test [1] concerns phospho-ERK in melanoma derived WM-266-4 cells. Kind of test: Mechanistic cellular assay for Raf kinase activity (phospho-ERK, Bio-Plex). The conditions noted are these: Homo sapiens, treated 1-2 hr at 37° C., serum free medium, read-out: pERK EC50. The test is classed as cell-based. A digest of the protocol:
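WM-266-4 melanoma cells (wild-type/V600D BRaf) grown overnight in 10% FBS RPMI, then treated 1–2 h at 37 °C in serum-free RPMI with eight 3-fold dilutions of compound (from 5 mM DMSO stock, 1000× dilution). Lysate phospho-ERK1,2 quantified by Bio-Plex bead immunoassay.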

Chain of V599E Raf (P15056 whole entry V600E): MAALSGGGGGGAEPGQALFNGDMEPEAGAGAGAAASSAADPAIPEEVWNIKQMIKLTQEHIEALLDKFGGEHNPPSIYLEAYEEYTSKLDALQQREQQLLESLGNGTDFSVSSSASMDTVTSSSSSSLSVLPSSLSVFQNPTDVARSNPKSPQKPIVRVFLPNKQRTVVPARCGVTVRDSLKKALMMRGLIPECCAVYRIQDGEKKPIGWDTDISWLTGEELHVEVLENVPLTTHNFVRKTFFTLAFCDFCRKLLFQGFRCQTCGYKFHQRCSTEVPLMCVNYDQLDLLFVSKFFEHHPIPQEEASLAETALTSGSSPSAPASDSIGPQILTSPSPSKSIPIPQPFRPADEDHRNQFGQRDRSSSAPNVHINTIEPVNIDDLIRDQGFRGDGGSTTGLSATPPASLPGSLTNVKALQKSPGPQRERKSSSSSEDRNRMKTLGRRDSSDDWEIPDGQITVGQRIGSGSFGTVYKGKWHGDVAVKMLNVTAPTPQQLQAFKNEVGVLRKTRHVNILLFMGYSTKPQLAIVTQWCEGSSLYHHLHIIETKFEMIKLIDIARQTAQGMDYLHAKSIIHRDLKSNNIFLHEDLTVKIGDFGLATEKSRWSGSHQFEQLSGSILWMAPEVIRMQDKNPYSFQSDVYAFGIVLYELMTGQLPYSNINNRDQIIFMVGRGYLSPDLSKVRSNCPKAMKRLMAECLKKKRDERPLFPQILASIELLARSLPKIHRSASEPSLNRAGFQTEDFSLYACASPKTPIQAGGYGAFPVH

`C[C@@H](NC(=O)c1cn2c(Br)cnc2cn1)c1cnc(Nc2ccc(C(F)(F)F)cc2)s1` [Example 298]: the IC50 at V599E Raf was at most 100 nM. Further, in test [1], the EC50 is at most 100 nM.
Turning to `CC(NC(=O)c1cc2c(cn1)nc(N)n2C)c1cnc(Nc2cnc(C(C)(C)C)nc2)s1` (stereo not shown) [Example 287], the IC50 at V599E Raf is at most 100 nM. Further, the half-maximal effective concentration (EC50) in test [1] was at most 100 nM.
As to `CCN1CC(n2cnc3cnc(C(=O)N[C@H](C)c4cnc(Nc5ccc(C(F)(F)F)cc5)cn4)cc32)C1` (stereo in doubt) [Example 180], the IC50 at V599E Raf is at most 100 nM. In addition, in test [1], the EC50 fell in the range of 100 to 1000 nM.
The corresponding values for `CC(NC(=O)c1cc2c(cn1)ncn2C)c1cnc(Nc2cc(C(N)=O)cc(C(C)(C)C)c2)s1` (stereo not shown) [Example 353] are at most 100 nM and 1000 to 10000 nM.
The corresponding values for `C[C@@H](NC(=O)c1cc2c(cn1)ncn2[C@@H]1CCNC1)c1cnc(Nc2ccc(C(F)(F)F)cc2)s1` [Example 26] are at most 100 nM and 100 to 1000 nM.
Take `C[C@@H](NC(=O)c1cc2c(cn1)ncn2[C@H]1CCNC1)c1cnc(Nc2ccc(C(F)(F)F)cc2)s1` [Example 31]: the IC50 on V599E Raf was at most 100 nM. Further, the EC50 in test [1] was in the range of 100 to 1000 nM.
The corresponding values for `Cc1ccc(NC(=O)c2cc([C@@H](C)NC(=O)c3cnn4ccccc34)no2)cc1C(F)(F)F` [Example 218] are at most 100 nM and at most 100 nM.
The like results for `C[C@@H](NC(=O)c1cc2c(cn1)ncn2C1CCC1)c1cnc(Nc2ccc(C(F)(F)F)cc2)cn1` (single isomer, unassigned) [Example 188] were, in that order, at most 100 nM and at most 100 nM.
`CC(NC(=O)c1cc2ncn(C)c2cn1)c1cnc(Nc2ccc(C(F)(F)F)cc2)s1` (stereo not shown) [Example 1]: the IC50 at V599E Raf is at most 100 nM. In addition, the EC50 in test [1] is 1000 to 10000 nM.
The like results for `CC(NC(=O)c1cc2c(cn1)ncn2C)c1cnc(Nc2ccc(C(F)(F)F)cn2)cn1` (stereo not shown) [Example 262] were, in that order, at most 100 nM and 100 to 1000 nM.
The corresponding values for `C[C@@H](NC(=O)c1ccc2[nH]c(CO)nc2c1)c1ncc(C(=O)Nc2cc(C(F)(F)F)c(Cl)cn2)s1` [Example 55] are at most 100 nM and 1000 to 10000 nM.
As for `CCn1cnc2cnc(C(=O)NC(C)c3cnc(Nc4ccc(C(F)(F)F)nc4)s3)cc21` (stereo not shown) [Example 291], the IC50 on V599E Raf was at most 100 nM. Moreover, the EC50 in test [1] fell in the range of 100 to 1000 nM.
The corresponding values for `CCn1cnc2cnc(C(=O)NC(C)c3cnc(Nc4cnc(C(C)(C)C)nc4)s3)cc21` (stereo not shown) [Example 285] are at most 100 nM and at most 100 nM.
The corresponding values for `CC(NC(=O)c1cc2c(cn1)ncn2C)c1cnc(Nc2cc(C(C)(C)C)ccc2F)s1` (stereo not shown) [Example 279] are at most 100 nM and at most 100 nM.
The like results for `CC(NC(=O)c1ccc2ncn(C)c2c1)c1cnc(Nc2ccc(C(F)(F)F)cc2)s1` (stereo not shown) [Example 76] were, in that order, at most 100 nM and 1000 to 10000 nM.
For `C[C@@H](NC(=O)c1ccc2sccc2c1)c1ncc(C(=O)Nc2cc(C(F)(F)F)c(Cl)cn2)s1` [Example 67], the IC50 on V599E Raf was in the range of 100 to 1000 nM. Moreover, the EC50 in test [1] fell in the range of 1000 to 10000 nM.
Regarding `C[C@@H](NC(=O)c1cc2c(cn1)ncn2CCS(C)(=O)=O)c1cnc(Nc2ccc(C(F)(F)F)cc2)s1` [Example 185], on V599E Raf, the IC50 is at most 100 nM. For the same compound, in test [1], the EC50 was 100 to 1000 nM.
The corresponding values for `C[C@@H](NC(=O)c1ccc2[nH]ccc2c1)c1ncc(C(=O)Nc2cc(C(F)(F)F)c(Cl)cn2)s1` [Example 56] are at most 100 nM and 100 to 1000 nM.
The corresponding values for `C[C@@H](NC(=O)c1cnc(CN2CCCC2)n1C)c1ncc(C(=O)Nc2cc(C(F)(F)F)c(Cl)cn2)s1` [Example 155] are at most 100 nM and 1000 to 10000 nM.
With `C[C@@H](NC(=O)c1cnc(CN2CCOCC2)n1C)c1ncc(C(=O)Nc2cc(C(F)(F)F)c(Cl)cn2)s1` [Example 156], the IC50 at V599E Raf was at most 100 nM. Further, the EC50 in test [1] lay within 1000 to 10000 nM.
The corresponding values for `C[C@@H](NC(=O)c1cnn2ccccc12)c1cc(C(=O)Nc2ccc(Br)c(C(F)(F)F)c2)on1` [Example 209] are 100 to 1000 nM and at most 100 nM.
The corresponding values for `C[C@@H](NC(=O)c1cscn1)c1ncc(C(=O)Nc2cc(C(F)(F)F)c(Cl)cn2)s1` [Example 95] are at most 100 nM and 1000 to 10000 nM.
The corresponding values for `C[C@@H](NC(=O)c1ccc2c(c1)OCCN2C)c1ncc(C(=O)Nc2cc(C(F)(F)F)c(Cl)cn2)s1` [Example 71] are at most 100 nM and 1000 to 10000 nM.
With `C[C@@H](NC(=O)c1cc2c(cn1)ncn2C)c1ncc(C(=O)Nc2cc(C(F)(F)F)c(Cl)cn2)s1` [Example 42], the IC50 at V599E Raf is at most 100 nM. Also, in test [1], the concentration giving a half-maximal response (EC50) was at most 100 nM.
Regarding `C[C@@H](NC(=O)c1cc2c(cn1)ncn2C1CNC1)c1cnc(Nc2ccc(C(F)(F)F)cc2)s1` [Example 27], the IC50 on V599E Raf was at most 100 nM. Also, the EC50 in test [1] lay within 100 to 1000 nM.
The like results for `CNCc1c(C(=O)N[C@H](C)c2ncc(C(=O)Nc3cc(C(F)(F)F)c(Cl)cn3)s2)cnn1C` [Example 129] were, in that order, 1000 to 10000 nM and 1000 to 10000 nM.
The corresponding values for `CCn1cnc2cnc(C(=O)NC(C)c3cnc(Nc4ccc(C(F)(F)F)cc4)s3)cc21` (stereo not shown) [Example 6] are at most 100 nM and at most 100 nM.
The corresponding values for `C[C@@H](NC(=O)c1cc2c(cn1)ncn2[C@H]1CCN(C(=O)OC(C)(C)C)C1)c1cnc(Nc2ccc(C(F)(F)F)cc2)s1` [Example 29] are at most 100 nM and at most 100 nM.
For the compound `Cc1n[nH]c(C)c1C(=O)N[C@H](C)c1ncc(C(=O)Nc2cc(C(F)(F)F)c(Cl)cn2)s1` [Example 111], the IC50 at V599E Raf is at most 100 nM. The EC50 in test [1] lay in the range of 1000 to 10000 nM.
`C[C@@H](NC(=O)c1ccc(N)cc1)c1ncc(C(=O)Nc2cc(C(F)(F)F)c(Cl)cn2)s1` [Example 54]: on V599E Raf, the IC50 fell in the range of 100 to 1000 nM. Further, the EC50 in test [1] lay within 1000 to 10000 nM.
The like results for `C[C@@H](NC(=O)c1cnn(Cc2ccccc2)c1)c1ncc(C(=O)Nc2cc(C(F)(F)F)c(Cl)cn2)s1` [Example 118] were, in that order, at most 100 nM and 1000 to 10000 nM.
`O=C(NCc1cnc(Nc2ccc(C(F)(F)F)cc2)s1)c1ccc2ncccc2c1` [Example 189]: the IC50 at V599E Raf was at most 100 nM. For the same compound, the EC50 in test [1] was 1000 to 10000 nM.
The corresponding values for `C[C@@H](NC(=O)c1csc(N)n1)c1ncc(C(=O)Nc2cc(C(F)(F)F)c(Cl)cn2)s1` [Example 98] are at most 100 nM and 1000 to 10000 nM.
The like results for `Cc1nc(Nc2ccc(C(F)(F)F)cc2)sc1C(C)NC(=O)c1cc2c(cn1)ncn2C` (stereo not shown) [Example 340] were, in that order, at most 100 nM and 1000 to 10000 nM.
The like results for `CCn1cnc2cnc(C(=O)NC(C)c3cnc(Nc4ccc(C(F)(F)F)cc4)s3)nc21` (stereo not shown) [Example 198] were, in that order, at most 100 nM and 100 to 1000 nM.
As for `CC(NC(=O)c1cc2c(cn1)ncn2C1CN(C(C)C)C1)c1cnc(Nc2ccc(C(F)(F)F)cc2)cn1` (stereo not shown) [Example 181], the IC50 on V599E Raf is at most 100 nM. In addition, the EC50 in test [1] lay within 100 to 1000 nM.
The corresponding values for `CCn1cnc2cnc(C(=O)N[C@H](C)c3cnc(Nc4ccc(C(F)(F)F)cc4)cn3)cc21` [Example 174] are at most 100 nM and at most 100 nM.
The corresponding values for `C[C@@H](NC(=O)c1cccc(N)n1)c1ncc(C(=O)Nc2cc(C(F)(F)F)c(Cl)cn2)s1` [Example 92] are at most 100 nM and 1000 to 10000 nM.

(Values after patent US20120040951A1, “HETEROARYL COMPOUNDS USEFUL AS RAF KINASE INHIBITORS” (priority 2008, published 2012).)
